# According to patent publication US6960611B2, “Sulfonyl-containing 2,3-diarylindole compounds, methods for making same, and methods of use thereof” (Institute of Materia Medica, priority 2002, dated 2005):
# Experiments:
# COX-2 = biological target: T1, COX-2 (Mus musculus, UniProt Q05769); experiment: COX-2 assay: PGE2 release (RIA) from LPS-stimulated mouse peritoneal macrophages; format: cell-based, mice; conditions: LPS 1 mg/L 9 h, PGE2 by RIA
# T1 construct: endogenous in cells; host or cells: thioglycollate-elicited peritoneal macrophages of male C57BL-6J mice, stimulated with LPS
# T1 sequence (Q05769 18-604): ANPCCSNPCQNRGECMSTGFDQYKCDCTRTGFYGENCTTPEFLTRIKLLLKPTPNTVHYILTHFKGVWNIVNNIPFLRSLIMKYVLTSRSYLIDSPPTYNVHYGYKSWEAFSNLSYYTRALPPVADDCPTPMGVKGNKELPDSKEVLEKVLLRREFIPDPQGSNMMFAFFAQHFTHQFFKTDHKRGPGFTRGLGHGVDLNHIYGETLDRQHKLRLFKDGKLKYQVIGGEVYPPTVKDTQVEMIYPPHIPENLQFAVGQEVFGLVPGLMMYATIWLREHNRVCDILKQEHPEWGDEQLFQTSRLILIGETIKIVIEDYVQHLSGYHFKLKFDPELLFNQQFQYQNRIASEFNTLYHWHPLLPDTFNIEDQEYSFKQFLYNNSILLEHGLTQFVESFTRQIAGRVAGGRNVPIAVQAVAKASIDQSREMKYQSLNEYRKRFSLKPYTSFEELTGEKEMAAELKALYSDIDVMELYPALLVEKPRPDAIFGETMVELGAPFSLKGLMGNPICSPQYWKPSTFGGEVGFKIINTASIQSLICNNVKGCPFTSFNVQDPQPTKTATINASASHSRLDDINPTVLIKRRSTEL
# Method: Cell culture: Adherent macrophages were harvested from the peritoneal cells of male mice (C57BL-6J, Level 2, from Experiment Animal Center, Academy of Military Medical Science) 3 d after the injection (ip) of brewer thioglycollate medium (5 mL/100 g body weight). […] Cell viability was examined by trypan blue dye exclusion. All incubation procedures were performed with 5% CO2 in humidified air at 37° C.
# COX-2 assay: Macrophages were incubated with test compound at different concentrations or solvent (Me2SO) for 1 h and were stimulated with LPS 1 mg/L for 9 h. The amount of PGE2 in supernatants was measured by RIA. The inhibitory ratio was calculated using the same Formula as in COX-1 assay section. Cs, Ct, Cc refer to PGE2 concentration in supernatants of LPS, test compound, and control groups, respectively.
# Statistical analysis: Data were expressed as the mean±SD of more than three independent experiments. Dose-inhibitory effect curves were fit through “uphill dose response curves, variable slope” using Prism, GraphPad (version 3.00): [formula]
# [1] = system: carrageenan-induced foot pad edema; experiment: Rat carrageenan-induced foot pad edema assay; format: in vivo; conditions: 10 mg/kg oral
# Method: Male Sprgue-Dawley rats (190-220 g ) were fasted with free access to water at least 16 h prior experiments. The rats were dosed orally with a 1 ml suspension of test compound in vehicle (0.5% methyl cellulose and 0.025% Tween-20) or with vehicle alone. One hour later a subplantar injection of 0.1 ml of 1% solution of carageenan in 0.9% strile saline was administered to the right hind foot pad. Paw volume was measured with a displacement plethysmometer 2, 3, and 4 h after carrageenan injection.
Compound,IC50 (COX-2),inhibitory percentage of edema ([1]; 2 h after carrageenan),inhibitory percentage of edema ([1]; 3 h after carrageenan),inhibitory percentage of edema ([1]; 4 h after carrageenan),edema (paw volume increase) ([1]; 2 h after carrageenan),edema (paw volume increase) ([1]; 3 h after carrageenan),edema (paw volume increase) ([1]; 4 h after carrageenan),melting point
2-(4-methylsulfonylphenyl)-3-phenyl-5-methylindole [Example 83],0.278 nM,46.1%,47.1%,46.1%,,,,
"Cc1ccc(-c2cc(C(F)(F)F)nn2-c2ccc(S(N)(=O)=O)cc2)cc1 [Celecoxib, reference compound]",,,51.6%,48.0%,31.1 ± 7.87%,53.2 ± 12.6%,48.8 ± 8.11%,
"CS(=O)(=O)c1ccc(-c2[nH]c3ccccc3c2-c2ccccc2)cc1 [Example 59, 2-(4-methylsulfonylphenyl)-3-phenylindole]",3.86 nM,,55.8%,56.1%,40.8 ± 15.8%,48.6 ± 14%,41.2 ± 17.4%,221 to 222 °C
"NS(=O)(=O)c1ccc(-c2[nH]c3ccccc3c2-c2ccccc2)cc1 [Example 60, 2-(4-aminosulfonylphenyl)-3-phenylindole]",0.161 nM,,48.3%,53.9%,32.5 ± 9.45%,56.9 ± 16.4%,43.2 ± 13.9%,231 to 232 °C
"CS(=O)(=O)c1ccc(-c2[nH]c3ccccc3c2-c2ccc(Cl)cc2)cc1 [Example 61, 2-(4-methylsulfonylphenyl)-3-(4-chlorophenyl)indole]",146 nM,,51.1%,50.4%,14.6 ± 7.8%,30.6 ± 10%,25.7 ± 10.1%,198.5 to 200.5 °C
"NS(=O)(=O)c1ccc(-c2[nH]c3ccccc3c2-c2ccc(Cl)cc2)cc1 [Example 62, 2-(4-aminosulfonylphenyl)-3-(4-chlorophenyl)indole]",33.5 nM,,24.2%,25.6%,16.6 ± 6.5%,41.3 ± 13.7%,38.6 ± 14.9%,298 to 300 °C
"CS(=O)(=O)c1ccc(-c2[nH]c3ccccc3c2-c2ccc(Br)cc2)cc1 [Example 63, 2-(4-methylsulfonylphenyl)-3-(4-bromophenyl)indole]",0.369 nM,,11.6%,16.1%,27.1 ± 10.1%,55.3 ± 17%,43.6 ± 9.5%,225 to 226 °C
"Cc1ccc(-c2c(-c3ccc(S(N)(=O)=O)cc3)[nH]c3ccccc23)cc1 [Example 66, 2-(4-aminosulfonylphenyl)-3-(4-methylphenyl)indole]",0.0684 nM,,,,,,,293 to 295 °C
"Cc1ccc(-c2c(-c3ccc(S(N)(=O)=O)cc3)[nH]c3ccccc23)cc1C [Example 68, 2-(4-aminosulfonylphenyl)-3-(3,4-dimethylphenyl)indole]",1.46 nM,,,,,,,251 to 253 °C
"COc1ccc(-c2c(-c3ccc(S(N)(=O)=O)cc3)[nH]c3ccccc23)cc1 [Example 70, 2-(4-aminosulfonylphenyl)-3-(4-methoxyphenyl)indole]",,,44.7%,38.5%,21.9 ± 11.8%,34.6 ± 10.4%,31.9 ± 11.9%,
"CS(=O)(=O)c1ccc(-c2[nH]c3ccccc3c2-c2ccc(F)cc2)cc1 [Example 71, 2-(4-methylsulfonylphenyl)-3-(4-fluorophenyl)indole]",,,11.1%,18.4%,44 ± 21.1%,54.4 ± 9.8%,49.1 ± 19%,224 to 226 °C
"CS(=O)(=O)c1ccc(-c2[nH]c3ccc(Cl)cc3c2-c2ccc(Cl)cc2)cc1 [Example 73, 2-(4-methylsulfonylphenyl)-3-(4-chlorophenyl)-5-chloroindole]",85.1 nM,,,,,,,281 to 283 °C
"NS(=O)(=O)c1ccc(-c2[nH]c3ccc(Cl)cc3c2-c2ccc(Cl)cc2)cc1 [Example 74, 2-(4-aminosulfonylphenyl)-3-(4-chlorophenyl)-5-chloroindole]",0.541 nM,,,,,,,245 to 247 °C
"CS(=O)(=O)c1ccc(-c2[nH]c3ccc(Cl)cc3c2-c2ccccc2)cc1 [Example 76, 2-(4-methylsulfonylphenyl)-3-phenyl-5-chloroindole]",,36.9%,52.8%,53.2%,45 ± 17.9%,46 ± 15.4%,37.7 ± 15.6%,281 to 283 °C
"NS(=O)(=O)c1ccc(-c2[nH]c3ccc(Cl)cc3c2-c2ccccc2Cl)cc1 [Example 77, 2-(4-aminosulfonylphenyl)-3-(2-chlorophenyl) -5-chloro indole]",100 nM,,,,,,,
"CS(=O)(=O)c1ccc(-c2[nH]c3ccc(Cl)cc3c2-c2ccccc2Cl)cc1 [Example 78, 2-(4-methylsulfonylphenyl)-3-(2-chlorophenyl) -5-chloro indole]",10 nM,,,,,,,300 to 301.5 °C
"NS(=O)(=O)c1ccc(-c2[nH]c3ccc(Br)cc3c2-c2ccccc2)cc1 [Example 81, 2-(4-aminosulfonylphenyl)-3-phenyl-5-bromoindole]",5 nM,,,,,,,310 to 312 °C
"CS(=O)(=O)c1ccc(-c2[nH]c3ccc(Br)cc3c2-c2ccccc2)cc1 [Example 82, 2-(4-methylsulfonylphenyl)-3-phenyl-5-bromoindole]",1.41 nM,,,,,,,262 to 264 °C
"NS(=O)(=O)c1ccc(-c2[nH]c3ccc(Cl)cc3c2-c2cccc(Cl)c2)cc1 [Example 85, 2-(4-aminosulfonylphenyl)-3-(3-chlorophenyl)-5-chloroindole]",,19.8%,36.1%,23.4%,57.2 ± 13.6%,62.3 ± 7.2%,61.7 ± 8.8%,
"CS(=O)(=O)c1ccc(-c2[nH]c3ccc(Cl)cc3c2-c2cccc(Cl)c2)cc1 [Example 86, 2-(4-methylsulfonylphenyl)-3-(3-chlorophenyl)-5-chloroindole]",0.801 nM,,,,,,,254 to 257 °C
"CS(=O)(=O)c1ccc(-c2[nH]c3ccc(Cl)cc3c2-c2ccc(S(C)(=O)=O)cc2)cc1 [Example 88, 2-(4-methylsulfonylphenyl)-3-(4-methylsulfonylphenyl)-5-chloroindole]",1.48 nM,,,,,,,173 to 175 °C
"Cc1ccc(-c2[nH]c3ccc(Cl)cc3c2-c2ccc(S(C)(=O)=O)cc2)cc1 [Example 91, 2-(4-methylphenyl)-3-(4-methylsulfonylphenyl)-5-chloroindole]",1.68 nM,,,,,,,238 to 240 °C
"CS(=O)(=O)c1ccc(-c2c(-c3ccc(O)cc3)[nH]c3ccc(Cl)cc23)cc1 [Example 95, 2-(4-hydroxyphenyl)-3-(4-methylsulfonylphenyl)-5-chloroindole]",,,,,,,,271 to 273 °C
"NS(=O)(=O)c1ccc(-c2[nH]c3ccccc3c2-c2ccc(O)cc2)cc1 [Example 96, 2-(4-aminosulfonylphenyl)-3-(4-hydroxyphenyl)indole]",6.44 nM,,,,,,,241 to 243 °C
"CC(=O)NS(=O)(=O)c1ccc(-c2[nH]c3ccccc3c2-c2ccccc2)cc1 [Example 97, 2-(N-acetamide-sulfonylphenyl)-3-phenylindole]",0.184 nM,,,,,,,221 to 222 °C
"CS(=O)(=O)c1ccc(C2=C(c3ccccc3)C(=O)OC2)cc1 [Rofecoxib, reference compound]",,29.5%,51.6%,52.6%,50.3 ± 5.1%,47.2 ± 2.4%,38.2 ± 6.7%,
